Measured values reported in a melting point compilation (Tetko et al.; mined from patent text by program, amines drawn as free bases though some values may be those of a salt).

Row | SMILES | melting point
1 | N#CNC(=S)Nc1ccccc1 | > 250 °C
2 | O=C(CCCCl)c1ccc2c(c1)Cc1cc(C(=O)CCCCl)ccc1O2 | 131 to 132 °C
3 | NC(Cc1ccc2c(c1)CCC2)=NO | 60 °C
4 | CC(O)c1ccc(O)c(Cl)n1 (stereo not drawn) | 89 to 92 °C
5 | COc1ccc2c(c1)C(c1ccc(N)cc1)=NNC(=O)C2 | 167 to 170 °C
6 | CS(=O)(=O)c1ccc(-c2cc(CO)sc2-c2ccc(F)cc2)cc1 | 140 to 142 °C
7 | C[C@@H]1CC(C)(C)C[C@@]2(C1)[C@@H](C)CC(=O)[C@]2(C)O (relative stereo) | 73 to 74 °C
8 | O=C(O)COc1ccc(CCC(=O)c2ccc(-c3ccc(C(F)(F)F)cc3)s2)c(Cl)c1Cl | 217 to 219 °C
9 | COC(=O)C(O)C(C)(Oc1ccc(Br)cc1)c1ccccc1 (stereo not drawn) | 133 to 135 °C
10 | O=C(NC(CS)Cc1ccccc1)N1CCN(c2cccc(C(F)(F)F)c2)CC1 (single isomer, unassigned; (+)) | 130 to 132 °C
11 | O=C(c1ccccc1)N1CCc2[nH]c3c(cnc4cc(Cl)ccc43)c2C1 | 275 °C
12 | COc1cc(C)cc(C(=O)NC(C)P(=O)(O)O)c1C1=CC(=O)c2c(O)cccc2C1=O (stereo not drawn) | > 300 °C
13 | Cc1cc(=O)c(-c2ccc(Oc3ccc(OC(F)(F)F)cc3)cc2)c(C)[nH]1 | 244 to 248 °C
14 | CC1(C)Oc2ccc(S(=O)(=O)C(F)(F)F)cc2[C@@H](N2Cc3c(F)cccc3C2=O)[C@@H]1O (relative stereo) | 259 to 261 °C
15 | O=S1CCc2nc(N3CCN(c4ccccc4)CC3)nc(Nc3cccc(Cl)c3)c21 (stereo not drawn) | 230 to 231 °C
16 | OCc1nc(-c2cccs2)cs1 | 113 to 114 °C
17 | Oc1ccc(C(=C(Cl)c2ccccc2)c2ccccc2)cc1 | 127 to 129 °C
18 | CS(=O)(=O)c1ccc(-c2oc(C(c3ccccc3)c3ccccc3)nc2-c2ccc(F)cc2)cc1 | 155 to 156 °C
19 | c1ccc(-c2cnc(N3CCc4c([nH]c5ccccc45)C3C3Cc4ccccc4O3)nc2)nc1 (stereo not drawn) | 170 to 171 °C
20 | Cc1cc(C=CC#N)c(Cl)cc1F | 90 to 91 °C
21 | Cn1c2ccccc2c2cccc(N)c21 | 90 to 92 °C
22 | O=C(O)c1ccccc1Oc1ccc(C(F)(F)F)cc1NS(=O)(=O)c1ccc(F)cc1 | 159 to 160 °C
23 | Cc1ccc(S(=O)(=O)c2ccc(C(F)(F)F)cc2NC(=O)N[C@@H](Cc2ccc(NC(=O)c3c(Cl)cccc3Cl)cc2)C(=O)O)cc1 | 233 °C
24 | O=C(c1ccc(Cl)cc1)c1cccc([N+](=O)[O-])c1N1CCCCC1 | 141 °C

Row | SMILES | melting point
25 | NCc1cn(C2CCc3ccccc3C2)c(=S)[nH]1 (stereo not drawn) | 197 to 200 °C
26 | O=C1NCCN1S(=O)(=O)N1CCCCC1 | 201 °C
27 | NC(=O)N(O)Cc1ccco1 | 128 to 131 °C
28 | CC(C)(C)NC(=O)c1nn(-c2cc(F)c(F)cc2F)c2c1C1CCC2C1 (stereo not drawn) | 127 to 130 °C
29 | CSC(SC)=C(C#N)C(=O)NC1CCCCC1 | 103 to 105 °C
30 | CC1Nc2ccc3c(c2N1C)OC(CN1CC=C(c2c[nH]c4ccccc24)CC1)CO3 (stereo not drawn) | 186 to 188 °C
31 | CC(C)(CO)NCC(=O)N1C[C@@H](F)C[C@H]1C#N | 146 to 148 °C
32 | Cc1cc2c(cc1O)C(C)(C)CC1(CC(C)(C)c3cc(OC(C)(C)C(=O)O)c(C)cc3O1)O2 (stereo not drawn) | 99 to 101 °C
33 | O=C(Oc1cc(=O)[nH]cc1Cl)c1ccccc1 | 196 to 197 °C
34 | O=C1Cc2cc(NCc3ccccc3)ccc2N1 | 203 to 206 °C
35 | OCc1ccccc1NCc1cc2c(cc1O)CCO2 | 149 to 150 °C
36 | CNC(Cc1ccccc1N)c1ccncc1 (stereo not drawn) | 69 to 71 °C
37 | Cc1nc2cc3c(cc2o1)C1(CO3)C(=O)N(C(c2ccccc2)c2ccccc2)c2ccccc21 (stereo not drawn) | 240 to 242 °C
38 | O=c1[nH]nccc1-c1ccccc1 | 216 to 219 °C
39 | CC(C)(C)OC(=O)N1CCC=C(Cc2cn(S(=O)(=O)c3ccccc3)c3ccc(F)cc23)C1 | 63 to 65 °C
40 | FC(F)(F)c1nc(Cl)sc1C(=S)OCc1ccccc1 | 61 to 63 °C
41 | O=c1c2c(c1=O)Nc1c(cc(Cl)c(Cl)c1Cl)N2 | > 360 °C
42 | FC(F)(F)c1cccc(Oc2ccnc(-n3ccc(C(F)(F)F)n3)n2)c1 | 72 to 73 °C
43 | Fc1cc(Cl)cc(Cn2cccc2)c1 | 48 to 50 °C
44 | CC(C)CC(C(=O)O)N(C)C(C)C (stereo not drawn) | 159 to 160 °C
45 | CC1(C)CC(=O)C(C(=O)Nc2cccc(C(F)(F)F)c2)C(=O)C1 | 116 to 117 °C
46 | CC(O)c1cc(I)cc(S(N)(=O)=O)c1 (stereo not drawn) | 184 to 187 °C
47 | CC(=O)S[C@@H]1CCO[C@@H](/C(C)=C/c2ccc(C(F)(F)F)cc2)O1 (relative stereo) | 128 to 129 °C
48 | N#Cc1c(-c2ccccc2)c(-c2ccccc2)nn(CC(=O)NN)c1=O | 191 to 192 °C

Continued, values first:

Row | melting point | SMILES
49 | 91 to 92 °C | Cc1nn(C)cc1C(=O)Nc1ccccc1
50 | 172 to 178 °C | N#Cc1ccc(OCc2ccc3ncoc3c2)cc1OC(C(=O)O)c1ccccc1Cl (racemic)
51 | 63 to 67 °C | CCCc1nc(C(=O)CC)c(C)[nH]1
52 | 125 to 128 °C | CC(=O)C1(c2ccccc2)CCN(C(=O)C(c2ccccc2)n2cnc3[nH]ncc3c2=S)CC1 (stereo not drawn)
53 | 62 to 63 °C | COCCOc1ccc([N+](=O)[O-])cc1F
54 | 179 to 180 °C | CC(=O)Oc1cc2c(c(OC(C)=O)c1)C1CCC3(C)C(=O)CCC3C1CC2 (stereo not drawn)
55 | 95 to 97 °C | CN(C)C(=N)CSc1nnc(S)s1
56 | 143 to 145 °C | C=Cc1c(NC(C)=O)cc(-c2ccc(Cl)c(OC)c2F)nc1C(=O)OC
57 | 114 to 115 °C | Cc1ccc(C)c(S(=O)(=O)N(C)CC(O)(CO)c2ccccc2)c1 (stereo not drawn)
58 | 150 to 155 °C | O=S(=O)(CC1CCCC1)c1nc[nH]n1
59 | 128 to 130 °C | COc1cc(C2(C=O)C=CC=CC2)ccc1OCCCN1CCC(c2noc3cc(F)ccc23)CC1 (stereo not drawn)
60 | 105 to 107 °C | CC(C)(C)OC(=O)NCCSc1cccc2nccn12
61 | 160 to 162 °C | CC(C)[C@H](NC(=O)OCc1ccccc1)C(=O)N[C@H](C=O)Cc1ccc(OCc2ccccc2)cc1
62 | 112 to 113 °C | COc1c(F)cccc1OCCN1C(=O)c2ccccc2C1=O
63 | 58 to 60 °C | Cc1nc2nc(Cl)c(Cl)nc2s1
64 | 85 to 86 °C | CCCC(=O)c1cnc2ccc(COCc3ccccc3)cc2c1Cl
65 | 44 to 46 °C | CCOC(=O)c1cc2n(n1)CCCO2
66 | 64 to 66 °C | N#CC(CCOc1ccccc1)(Cn1cncn1)c1ccccc1 (stereo not drawn)
67 | 120 to 122 °C | Cc1c(C2CCCCC2)nn(C)c1C1CCCCC1
68 | 171 to 172 °C | CCOc1c(OC)cc(C(=O)N2CCN(C(=O)C3=Cc4cc(OC)c(OC)cc4CCC3)CC2)cc1OC
69 | 73 to 74 °C | CCOc1nn(-c2cc(C(F)(F)F)ccn2)cc1CCCO
70 | 92 to 96 °C | COC(=O)CC[C@H]1CC[C@@H](n2c(C)nn(-c3ccc(C#N)cc3)c2=O)CC1
71 | 177 to 180 °C | COC(=O)c1ccccc1S(=O)(=O)NC(=O)Nc1nc(OC)n(C)n1
72 | 184 °C | CN1C2CCC1CC(N(C)S(=O)(=O)c1ccc(Nc3nccc(Nc4ccc(F)cc4)n3)cc1)C2 (stereo not drawn)
73 | 163 to 165 °C | COc1cc(S(=O)(=O)c2ccncc2)ccc1N
74 | 194 to 195 °C | COc1ccc(/C=C/C(=O)Nc2ccccc2C(=O)O)cc1
75 | 124 to 125 °C | N#CCCOc1ccccc1OCCC#N
76 | 122 °C | N#CC=Cc1ccc(C=O)cc1

Row | melting point | SMILES
77 | 81 to 83 °C | CCCCCCCCCCCCCCCCCCOc1cc(N(CC(=O)OC)CC(=O)OC)cc(S(=O)CC(=O)OC)c1 (stereo not drawn)
78 | 172 to 173 °C | CCCCCCNC(=O)c1cccc2c1C1(COc3cc4c(cc31)OCCO4)C(=O)N2C (stereo not drawn)
79 | 56 to 60 °C | C=CCOC1=NC(OCC)=NS(=O)(=O)N1C
80 | 208 to 210 °C | CCc1c(C(=O)O)ccc(OCc2ccccc2)c1Cl
81 | 190 °C | Cn1cncc1C(O)(c1ccc(Cl)cc1)c1ccc2c(c1)c(CCc1cccc(Cl)c1)cc(=O)n2C (stereo not drawn)
82 | 47 to 49 °C | CC(C)c1cc(C(C)(C)C)cc(Br)c1OCc1ccccc1
83 | 163 to 165 °C | CN(C)C(=O)CCNC(=O)c1ccc(-c2ccc3nnn(Cc4ccc5ncccc5c4)c3n2)cc1F
84 | 198 °C | Cc1cc(C)nc(NC(=O)NS(=O)(=O)Nc2nc(C)cc(C)n2)n1
85 | 140 to 144 °C | COCCN1CCN(C(=O)c2ccc3n2Cc2ccccc2N(C(=O)c2ccc(-c4ccccc4C(F)(F)F)c(C)c2)C3)CC1
86 | 166 to 169 °C | Cn1c(=O)c2c(Cl)cc(Cl)cc2n(Cc2ccccc2)c1=O
87 | 81 to 83 °C | CCCCCCCCCCCCCCCCCCOc1ccc(OCc2ccccc2)c(C(=O)N(CC(=O)O)CC(=O)O)c1
88 | 124 to 126 °C | CCC1C(=O)Nc2ccc3ccccc3c21 (stereo not drawn)
89 | 140 to 142 °C | C#CC1C2=C(C(=O)CCC2)c2ccc(OC(=O)C(C)(C)C)cc2N1C(=O)Oc1ccccc1 (stereo not drawn)
90 | 81 to 83 °C | COC(=O)C1=C(C)NC(C)=C(C(=O)OCCCCCCS(=O)c2nc(C)cs2)C1c1cccc([N+](=O)[O-])c1 (stereo not drawn)
91 | 179 to 181 °C | CNS(=O)(=O)c1ccc(-c2ccc3oc(C4CCN(C(=O)OC(C)C)CC4)nc3c2)cc1
92 | 248 to 249 °C | CC(C)Cc1[nH]nc2c(N)nc3ccccc3c12
93 | 144 to 145 °C | CCOC(=O)C(=CNc1nnc(-c2cccnc2)s1)C(=O)OCC
94 | 80 to 81 °C | CCc1nc(Cl)cc(NC)n1
95 | 114 to 116 °C | COC(=O)c1c(Cl)cc(Cl)cc1NC(=O)CSc1ccc(N)cc1
96 | 152 °C | CCCCn1c(=O)c2[nH]c(Cl)nc2n(CCCC)c1=O
97 | 84.5 to 86 °C | COc1ccc2c(c1)Oc1c(ccc(OC)c1C=O)C2(C)C
98 | 132 to 134 °C | CCc1cc(C(=O)O)c(OC(C)=O)cc1C
99 | 160 to 164 °C | COc1ccc(C(CC(=O)O)N2C(=O)c3ccccc3C2=O)cc1 (stereo not drawn)
100 | 335 to 338 °C | COc1ccccc1-n1c(=O)[nH]c2c(C(N)=O)nc(-c3ccc(C#N)cc3)nc21
101 | 125 to 127 °C | COC(=O)[C@@H]1CSC(=S)N1CC(C)(C)SCc1ccc(OC)cc1
102 | 141 °C | Cc1cc(N)c([N+](=O)[O-])cc1NCCO
103 | 103 to 105 °C | CCCc1c(OCCCCc2cccc(O)c2O)ccc(C(C)=O)c1O
